{"source": "patent US20090098115A1", "about": "“Cell lines and animal models of HER2 expressing tumors” (priority 2006, published 2009)", "key": {"BT-474EEI cells": {"system": "BT-474EEI cells", "experiment": "In vitro cell proliferation assay (Cell Titer-Glo), BT-474EEI", "type": "cell-based, human", "conditions": "0.0001 ug/ml to 10 ug/ml, 72 h (FIGS. 7B, 8B)", "description": "(§1) BT-474 and BT-474EE1 cells were plated in 96-well microtiter plates and incubated overnight at 37° in a humidified atmosphere of 5% CO2. […] After incubation for 72 h, Cell Titer-Glo reagent (Promega, Madison, Wis.) was added to the wells, and after a 10-min incubation at room temperature, the luminescent signal was recorded."}, "BT-474 cells": {"system": "BT-474 cells", "experiment": "In vitro cell proliferation assay (Cell Titer-Glo), BT-474", "type": "cell-based, human", "conditions": "BT-474, 0.0001 ug/ml to 10 ug/ml, 72 h (FIGS. 7A, 8A)", "description": "as §1"}}}
{"smiles": "C#Cc1cccc(Nc2ncnc3cc(OCCOC)c(OCCOC)cc23)c1", "note": "[Tarceva, Erlotinib]", "values": [{"measurement": "cell proliferation", "setting": "BT-474EEI cells", "value": "reduced at high concentrations"}, {"measurement": "cell proliferation", "setting": "BT-474 cells", "value": "decreased with high doses"}]}
